Results on 49 compounds are retold here after US20250214977A1, “STAT6 INHIBITORS AND USES THEREOF” (Kymera Therapeutics, Inc., priority 2024, published 2025).

pIC50: −log10 of the molar value.

The subject of the test is Phosphorylation of STAT6 in human PBMC (CD19+ B cells). Briefly: Phosphorylated STAT6 (pSTAT6) flow cytometry assay in human PBMC, IL-4 stimulated. The note with it: compound 1 hour, 1 ng/ml IL-4 for 15 minutes, read-out: STAT6 IL4 pSTAT6 assay in PBMC: Average IC50. The class given is cell-based. The essentials:
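Human PBMC preincubated 1 h at 37 °C with compound (9-point 1:3 series, top up to 30 μM), then stimulated with 1 ng/ml IL-4 for 15 min. After fixation, methanol permeabilization and staining, pSTAT6 quantified in CD19+ B cells by flow cytometry; four-parameter fit of inhibition.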

On to `CN(C)C(=O)c1cc2ccc(C3=CCCN(C(=O)C4(O)CCCC4)C3)cc2[nH]1` [Example I-32], for which the negative logarithm of the IC50 (pIC50) is 4.00 to 5.00.

Turning to `CN(C)C(=O)c1cc2ccc(C3=CCCN(C(=O)c4ccccc4C(=O)c4ccc(F)cc4)C3)cc2[nH]1` [Example I-108], the pIC50 is below 4.00.

Take `CN(C)C(=O)c1cc2cc(C3=CCCN(C(=O)CCc4cccs4)C3)ccc2o1` [Example I-299]: the negative logarithm of the IC50 (pIC50) is below 4.00.

For `CN(C)C(=O)c1cc2ccc(C3=CCCN(C(=O)C4(c5ccccc5)CCC(=O)NC4)C3)cc2[nH]1` (stereo not shown) [Example I-87], the pIC50 was 4.00 to 5.00.

For `CN(C)C(=O)c1cc2cc(C3=CCCN(C(=O)Cc4cccnc4)C3)ccc2o1` [Example I-275], the negative-log IC50 (pIC50) is below 4.00.

In the case of `CN(C)C(=O)c1cc2ccc(C3=CCCN(C(=O)C4CC4F)C3)cc2[nH]1` (stereo not shown) [Example I-25], the pIC50 is below 4.00.

As for `CN(C)C(=O)c1cc2ccc(C3=CCCN(C(=O)C(CO)c4ccccc4)C3)cc2[nH]1` (stereo not shown) [Example I-159], the pIC50 is below 4.00.

Turning to `CN(C)C(=O)c1cc2cc(C3=CCCN(C(=O)[C@H](N)Cn4ccnn4)C3)ccc2o1` (single isomer, unassigned) [Example I-174], the negative-log IC50 (pIC50) was below 4.00.

On to `CNc1ccc(-c2cc(C3=CCCN(C(=O)CCn4ccnn4)C3)cc3[nH]c(C(=O)N(C)C)cc23)c(F)c1` [Example I-115], for which the negative-log IC50 (pIC50) is 5.00 to 6.00.

For `CN(C)C(=O)c1cc2ccc(C3=CCCN(C(=O)CN4C(=O)COc5ccccc54)C3)cc2[nH]1` [Example I-79], the pIC50 was 4.00 to 5.00.

Turning to `CN(C)C(=O)c1cc2ccc(C3=CCCN(S(=O)(=O)Cc4cccnn4)C3)cc2[nH]1` [Example I-16], the negative-log IC50 (pIC50) was below 4.00.

Regarding `CN(C)C(=O)c1cc2ccc(C3=CCCN(C(=O)Cn4cncn4)C3)cc2[nH]1` [Example I-36], the pIC50 was 4.00 to 5.00.

As for `CC(C(=O)N1CCC=C(c2ccc3cc(C(=O)N(C)C)[nH]c3c2)C1)n1ccccc1=O` (stereo not shown) [Example I-53], the pIC50 was 5.00 to 6.00.

Take `CN(C)C(=O)c1cc2cc(C3=CCCN(C(=O)CCn4ccnn4)C3)cc(N3CCNCC3)c2o1` [Example I-191]: the negative-log IC50 (pIC50) is below 4.00.

As to `CN(C)C(=O)c1cc2ccc(C3=CCCN(C(=O)CCc4ccno4)C3)cc2[nH]1` [Example I-19], the pIC50 was below 4.00.

As for `COc1ccc(CC(=O)N2CCC=C(c3ccc4oc(C(=O)N(C)C)cc4c3)C2)cc1C#N` [Example I-256], the negative-log IC50 (pIC50) was below 4.00.

For the compound `CN(C)C(=O)c1cc2ccc(C3=CCCN(C(=O)C4CC(O)C4)C3)cc2[nH]1` (stereo not shown) [Example I-28], the negative-log IC50 (pIC50) was 4.00 to 5.00.

Consider `CN(C)C(=O)c1cc2cc([C@@H]3CN(C(=O)CCn4ccnn4)CC[C@H]3O)ccc2o1` (single isomer, unassigned) [Example I-209], for which the pIC50 is below 4.00.

Take `CN(C)C(=O)c1cc2ccc(C3=CCCN(C(=O)C4CN(Cc5ccccc5)CCO4)C3)cc2[nH]1` (stereo not shown) [Example I-100]: the pIC50 is 4.00 to 5.00.

Take `CN(C)C(=O)c1nc2ccc(C3=CCCN(C(=O)CCn4ccnn4)C3)cc2s1` [Example I-227]: the negative-log IC50 (pIC50) is 4.00 to 5.00.

On to `CN(C)C(=O)c1nc2cc(C3=CCCN(C(=O)CCc4ccccn4)C3)ccc2[nH]1` [Example I-199], for which the negative-log IC50 (pIC50) was below 4.00.

As to `CC(=O)NC(Cn1ccnn1)C(=O)N1CCC=C(c2ccc3oc(C(=O)N(C)C)cc3c2)C1` (stereo not shown) [Example I-179], the negative logarithm of the IC50 (pIC50) is below 4.00.

Take `CNc1ccc(-c2cc(C3=CCCN(C(=O)CCn4ccnn4)C3)cc3[nH]c(C(=O)N(C)C)cc23)cc1` [Example I-113]: the pIC50 is above 7.00.

With `CN(C)C(=O)c1cc2cc(C3=CCCN(C(=O)CCn4ccnn4)C3)cc(CN3CCCCC3)c2o1` [Example I-185], the pIC50 was 4.00 to 5.00.

As to `CN(C)C(=O)c1cc2cc(C3=CCCN(C(=O)Cc4cccc5ccccc45)C3)ccc2o1` [Example I-294], the negative-log IC50 (pIC50) is below 4.00.

As for `CN(C)C(=O)c1cc2ccc(C3=CCCN(C(=O)C4(c5ccc(Cl)cc5)CC(O)C4)C3)cc2[nH]1` (stereo not shown) [Example I-78], the negative-log IC50 (pIC50) was below 4.00.

Regarding `CN(C)C(=O)c1cc2cc(C3=CCCN(C(=O)Cc4ccc5ccccc5c4)C3)ccc2o1` [Example I-295], the pIC50 was below 4.00.

For the compound `CN(C)C(=O)c1cc2ccc(C3=CCCN(C(=O)C4(O)CC4)C3)cc2[nH]1` [Example I-27], the pIC50 was below 4.00.

With `CN(C)C(=O)c1cc2cc(C3=CCCN(C(=O)CCc4ccncc4)C3)ccc2o1` [Example I-313], the pIC50 was below 4.00.

In the case of `CN(C)C(=O)c1cc2ccc(C3=CCCN(C(=O)[C@@H]4C[C@H]4c4ccn(C)n4)C3)cc2[nH]1` [Example I-11], the pIC50 is 4.00 to 5.00.

For the compound `O=C(CCn1ccnn1)N1CCC=C(c2ccc3cc(C(=O)N4CCCC4)[nH]c3c2)C1` [Example I-124], the pIC50 was below 4.00.

For `O=C(CCn1ccnn1)N1CCC=C(c2c[nH]c3cc(-n4ccccc4=O)ccc23)C1` [Example I-277], the negative-log IC50 (pIC50) was below 4.00.

As to `CN(C)C(=O)c1cc2ccc(C3=CCCN(C(=O)c4ccnnc4O)C3)cc2[nH]1` [Example I-146], the pIC50 is below 4.00.

For the compound `CN(C)C(=O)c1cc2cc(C3=CCCN(C(=O)Cc4n[nH]c5ccccc45)C3)ccc2o1` [Example I-302], the negative-log IC50 (pIC50) was below 4.00.

For the compound `CN(C)C(=O)c1cc2cc(C3=CCCN(C(=O)CCc4cccnn4)C3)ccc2o1` [Example I-220], the negative-log IC50 (pIC50) was below 4.00.

As to `C[C@@H](Cn1ccnn1)C(=O)N1CCC=C(c2ccc3oc(C(=O)N(C)C)cc3c2)C1` (single isomer, unassigned) [Example I-229], the pIC50 was below 4.00.

For `CN(C)C(=O)c1cc2ccc(C3=CCCN(C(=O)CCS(=O)(=O)c4ccccc4)C3)cc2[nH]1` [Example I-66], the pIC50 was 5.00 to 6.00.

Regarding `CN(C)C(=O)c1cc2ccc(C3=CCCN(C(=O)c4cccnc4CS(C)(=O)=O)C3)cc2[nH]1` [Example I-69], the pIC50 was below 4.00.

For `CN(C)C(=O)c1cc2ccc(C3=CCCN(C(=O)C4Cc5ccccc5CN4C=O)C3)cc2[nH]1` (stereo not shown) [Example I-202], the pIC50 was 6.00 to 7.00.

Turning to `CN(C)C(=O)c1cc2ccc(C3=CCCN(C(=O)c4ccc(N5CCOCC5)c(F)c4)C3)cc2[nH]1` [Example I-158], the negative-log IC50 (pIC50) was below 4.00.

For `CN(C)C(=O)c1cc2ccc(C3=CCCN(C(=O)c4ccc(-c5ccc(Cl)cc5)cc4)C3)cc2[nH]1` [Example I-83], the pIC50 is 4.00 to 5.00.

Consider `Cc1nc(-c2ccccc2F)c(C(=O)N2CCC=C(c3ccc4cc(C(=O)N(C)C)[nH]c4c3)C2)o1` [Example I-89], for which the pIC50 is below 4.00.

As for `CN(C)C(=O)c1cc2ccc(C3=CCCN(C(=O)CCc4nnco4)C3)cc2[nH]1` [Example I-18], the pIC50 is below 4.00.

For `CN(C)C(=O)c1cc2cc(C3=CCCN(C(=O)C4Cc5ccccc5CN4C)C3)ccc2o1` (stereo not shown) [Example I-285], the pIC50 was below 4.00.

Regarding `CN(C)C(=O)c1cc2cc(C3=CCCN(C(=O)CCc4ccccn4)C3)ccc2o1` [Example I-268], the pIC50 was below 4.00.

Regarding `CN(C)C(=O)c1cc2cc(C3=CCCN(C(=O)CCn4ccnn4)C3)cnc2s1` [Example I-244], the pIC50 was below 4.00.

`CN(C)C(=O)c1nc2cc(C3=CCCN(C(=O)CCn4ccnn4)C3)ccc2[nH]1` [Example I-234]: the pIC50 was below 4.00.

Consider `CN(C)C(=O)c1cc2ccc(C3=CCCN(C(=O)C4CC(=O)N(Cc5ccccc5)C4)C3)cc2[nH]1` (stereo not shown) [Example I-88], for which the pIC50 is 4.00 to 5.00.

In the case of `CN(C)C(=O)c1cc2ccc(C3=CCCN(C(=O)CCn4nncc4CO)C3)cc2[nH]1` [Example I-13], the negative-log IC50 (pIC50) is 6.00 to 7.00.
